From US20250002843A1, “DERIVATION OF NAÏVE BOVINE EMBRYONIC STEM CELLS” (The Semex Alliance, priority 2021, published 2025)

Tested on: ZP-free bovine embryo
Assay: Bovine embryo attachment and outgrowth derivation (attachment, TE growth, ICM growth) in culture media
Type: cell-based
Conditions: for effect on derivation efficiency on substitution in t2iLGöY media: bovine IL-6 10 ng/ml for human LIF, CGP77675 2 uM for PD0325901
Method: The protocol for coating was as follows: • 1. 4 drops of 50 μL of coating solution: 0.1% gelatin or different concentrations of EHS-ECM, provided as a 100× concentrated solution, were applied onto Nunc surface 35 mm^2 cell culture dish (see FIG. 1). • 2. Coated substrates were incubated in a humidified 5% CO2 incubator at 38.5° C. for 1 hour. • 3. After incubation, excess coating solution was removed, 50 uL of cell culture media was applied to the coated area, covered with 4 mL of mineral oil, and 50 ul of additional media was added into each drop. • 4. Media was allowed to equilibrate in a humidified 5% O2, 5% CO2 incubator at 38.5° C. for 2 hours. • 5. After ZP removal and adaptation of embryos, 1 embryo was placed into 1 micro culture drop to start outgrowth derivation. • 6. First attachment rate was determined at 48 hours of outgrowth culture and first media change was done right after first attachment determination. • 7. Attachment rate and outgrowth rate were evaluated every day and media were changed right after daily evaluation.
The protocol for generating LbL ECM coated substrate was as follows: • 1. 40 ul of 0.1% Gelatin type A (diluted with DMEM/F12 basal medium) was applied to the surface of a Nunc 35 mm^2 cell culture dish to make small drops. • 2. The dish was incubated in a humidified 5% CO2 incubator at 38.5° C. for 1 hour. • 3. After incubation, the gelatin solution was removed and 50 ul of DPBS with Ca^2+ and Mg^2+ was added to wash excess gelatin from drops, followed by removal using aspiration. The washing step was repeated 2 times more. • 4. 50 ul of 1×EHS-ECM was applied to the gelatin coated area and incubated in a humidified 5% CO2 incubator at 38.5° C. for 1 hour. • 5. After incubation, EHS-ECM solution was removed, and 50 ul of media was applied; drops were covered with 4 ml of mineral oil, and 50 ul of additional media was added into each drop. • 6. The media was allowed to equilibrate in 5% CO2 incubator for 2 hours.
• 1. Thawing media and outgrowth media was mixed at a 1:1 ratio. • 2. After post-thaw recovery, embryos were washed twice in adaptation media (1:1 ratio of thawing media (e.g. embryo handling media and outgrowth media (e.g. DMEM))) before being put in the adaptation drop in the Dish #1 (FIG. 10). • 4. After 1 hour of adaptation, embryos were then washed four times by transferring to washing drops (outgrowth media) in the Dish #2. • 5. Embryos were then moved to the outgrowth media (DMEM) for plating. • 6. Adapted embryos were then plated into LbL coated micro drop.
FBS (10091, Gibco™), Knock-out Serum Replacement (10828-10, Gibco™), Serum Replacement (S0638, Sigma), B27 supplement (17504-044, Gibco™), and N2 supplement (17502-048, Gibco™) were used for this test. Traditional mouse 2iL media (DMEM/F12+1% MEM non-essential amino acid+2 mM Glutamax+100 µM beta-mercaptoethanol+100 IU penicillin/streptomycin+growth factors/inhibitors including 3 µM CHIR99021, 1 μM PD0325901 and 100 ng/ml LIF) was used as a basal medium for the serum tests of 10% FBS and 20% KOSR, and 1×-, 2×-SR groups. t2iLGöY media (1:1 mixture of DMEM/F12 and neurobasal medium+1% MEM non-essential amino acid+2 mM Glutamax+50 μg/ml BSA, fraction V+100 μM beta-mercaptoethanol+100 IU penicillin/streptomycin+growth factors/inhibitors including 1 μM CHIR99021, 1 μM PD0325901, 10 μM Y27632, 2.5 μM Gö6983 and 10 ng/ml LIF) was used for the testing of N2B27 group. […]

COc1cccc(-c2cn(-c3ccc(CCN4CCC(O)CC4)cc3)c3ncnc(N)c23)c1 [CGP77675]
effect on derivation efficiency on substitution in t2iLGöY media: negative effect

COc1ccc2c(c1)c(C1=C(c3c[nH]c4ccccc34)C(=O)NC1=O)cn2CCCN(C)C [Gö6983]
derivation efficiency on addition in t2iLGoY (side-by-side with 2i, 2iLFk and NHSM media): improved

insulin
hypoblast formation during outgrowth culture (addition of 20 μg/ml to the medium): not observed

O=C(NOC[C@H](O)CO)c1ccc(F)c(F)c1Nc1ccc(I)cc1F [PD0325901]
derivation efficiency when withdrawn from media (MEK inhibitor withdrawn, embryo cavity formation): decreased

B1: bovine IL-6: bovine IL-6, a member of the LIF superfamily (protein, UniProt P26892 30-208, looked up)
Interleukin-6: GPLGEDFKNDTTPGRLLLTTPEKTEALIKRMVDKISAMRKEICEKNDECESSKETLAENKLNLPKMEEKDGCFQSGFNQAICLIRTTAGLLEYQIYLDYLQNEYEGNQENVRDLRKNIRTLIQILKQKIADLITTPATNTDLLEKMQSSNEWVKNAKIILILRNLENFLQFSLRAIRMK
effect on derivation efficiency on substitution in t2iLGöY media: negative effect
